Tests used:
[1] = system: porcupine (PORCN); conditions: statement in words; cited from earlier work
[2] = predicted human absorption, clearance and bioavailability
Description: Based on in vitro data, the predicted human oral bioavailability is 70%. The observed oral bioavailability in several animal species is in the range 40% to 60%.
Therefore, a conservative estimate is that Cmax following an IV infusion over 20 minutes is less than 2-fold higher compared to an oral dose, after correcting for F.

[3] = system: renal fibrosis in a UUO model in mice; conditions: mice (Bunyard 2019); cited from earlier work
[4] = system: healthy subjects; assay: Example 1 Part 2 (MAD): safety in healthy subjects; assay type: in vivo, human
Description: Part 2 comprises a Screening Period of a maximum of 6 weeks. This is followed by a treatment period during which subjects are resident at the Clinical Unit from 1 day before IMP administration (Day −1) until at least 72 hours after the last dose given on Day 16 (Day 19). Subjects are dosed for a total of 15 days and receive a single once daily morning dose of AZD5055 or placebo on Day 1 and on Days 3 through Day 16, with no dosing on Day 2. This is followed up a Follow-up Visit within 6±1 day after the IMP dose, and an additional Follow-up Visit within 29±2 days after the last IMP dose.
For cohorts with QD dosing regimens, the Screening Period is followed by a Treatment Period during which subjects are resident at the Clinical Unit from 1 day before IMP administration (Day −1) until at least 72 hours after the last dose given on Day 16 (Day 19). Subjects are dosed for a total of 15 days, receiving a single QD morning dose of AZD5055 or placebo on Day 1 and on Days 3 through Day 16.
For cohorts with BID dosing regimens, the Screening Period is followed by a Treatment Period during which subjects are resident at the Clinical Unit from 1 day before IMP administration (Day −1) until at least 72 hours after the last dose given on Day 16 (Day 19).
Subjects are dosed for a total of 15 days, receiving a single morning dose of AZD5055 or placebo on Day 1 and Day 16, and repeated BID dosing on Day 3 through Day 15, 12 hours (±30 minutes) apart.
For both cohorts, the Treatment Period is followed by a Follow-up Visit within 6±1 day after the last IMP dose, and an additional Follow-up Visit within 29±2 days after the last IMP dose.
The study was conducted in healthy male and healthy female subjects of non-childbearing potential with suitable veins for cannulation or repeated venipuncture. […] Also, the subjects were aged 18 to 55 years inclusive for men and women in Part 1 and only men in Part 2. For female subjects in Part 2, the age range was 18 to 49 years inclusive.
In Part 1 of the study, 3 dose levels of AZD5055 were investigated in 3 cohorts. Each cohort included 8 subjects. Within each cohort, 6 subjects were randomized to receive AZD5055, and 2 subjects were randomized to receive placebo. In Part 2 of the study, 3 dose levels of AZD5055 were investigated in 3 cohorts. In each cohort, 9 subjects were randomized to receive AZD5055, and 3 subjects were randomized to receive placebo.
Safety endpoints included adverse events; vital signs (supine blood pressure, pulse, respiratory rate, and body temperature); 12-lead ECG, 12-lead dECG, telemetry, physical examinations, clinical laboratory assessments (hematology, clinical chemistry [including serum creatinine and creatine phosphokinase], urinalysis [including protein and albumin creatinine ratios], and cardiac biomarkers [including cardiac Troponin T (cTNT), cardiac Troponin I; (cTNI), and B type natriuretic peptide]), and peripheral oxygen saturation (SpO2).
All safety data (scheduled and unscheduled) were presented in the data listings. Continuous variables were summarized using descriptive statistics (n, mean, standard deviation, min, median, max) by treatment. Categorical variables were summarized in frequency tables (frequency and proportion) by treatment (both Parts 1 and 2). The analysis of the safety variables was based on the safety analysis set. Adverse events were summarized by System Organ Class (SOC) and Preferred Term (PT) using Medical Dictionary for Regulatory Activities vocabulary. Furthermore, listings of serious adverse events (SAEs) and adverse events leading to the discontinuation of IMP (DAEs) were made and the number of subjects who had any adverse events (AEs), SAEs, DAEs and AEs with severe intensity were summarized. Adverse events that occur before dosing were reported separately. Tabulations and listings of data for ECG, vital signs, AEs, and clinical laboratory tests, measurements were presented.

[5] = system: CYP3A4; assay: Example 1: 4-β-hydroxy-cholesterol levels in blood (CYP3A4 activity); assay type: in vivo, human; conditions: healthy subjects
Text: Change from baseline in 4-β-hydroxy-cholesterol levels in blood.
Plasma 4-β-hydroxy-cholesterol levels at baseline and the last day of dosing were statistically analyzed using a linear mixed model analysis of covariance with treatment as a fixed effect and the baseline concentration of 4-β-hydroxy-cholesterol as covariate.

[6] = Part 2, across all AZD5055 doses

Cc1cc(-c2nccc3c2ccn3CC(=O)Nc2ccc(-c3cnccn3)cn2)ccn1 [AZD5055, 2-[4-(2-methyl-4-pyridyl)pyrrolo[3,2-c]pyridin-1-yl]-N-(5-pyrazin-2-yl-2-pyridyl)acetamide]
inhibition of the intracellular enzyme porcupine (PORCN) [1]: potent, and selective inhibitor
Cmax after 20-minute IV infusion relative to oral dose ([2]; conservative estimate, after correcting for F): less than 2 fold
dose absorbed within 20 minutes ([2]; estimated from tmax of 1 hour, oral): approximately 75%
renal fibrosis, UUO model [3]: reduces
tolerability ([4]; 5, 15 and 20 mg QD, oral suspension): well tolerated at all administered doses
AE intensity, majority of AEs ([4]; Part 2): Grade 1 (mild)
AEs leading to discontinuation of AZD5055 ([4]; Part 2): 3 AEs
SAEs or deaths ([4]; Part 2): no SAEs or deaths
clinical laboratory results, vital signs, physical examinations, ECGs ([4]; Part 2): No clinically relevant trends
trends for AEs by SOC or PT ([4]; Part 2): no notable trends
subjects with AE of ventricular tachycardia/non-sustained ventricular tachycardia, Grade 2, possibly related ([4]; Part 2, 5 mg dose): Two
subjects with AE of coronavirus infection, Grade 1, not considered related ([4]; Part 2, 15 mg dose): One
AEs possibly related to AZD5055, total [4, 6]: 7 AEs
subjects with an AE of Grade 2 (moderate) intensity [4, 6]: 5 subjects
subjects with at least one AE [4, 6]: 21 subjects
AE outcome ([4]; Part 2, all AEs, by end of study): recovered/resolved by the end of the study
possibly related AEs: breath odour ([4]; Part 2, number of AEs): 1
possibly related AEs: dysgeusia ([4]; Part 2, number of AEs): 1
possibly related AEs: headache ([4]; Part 2, number of AEs): 3
possibly related AEs: photophobia ([4]; Part 2, number of AEs): 1
possibly related AEs: ventricular tachycardia ([4]; Part 2, number of AEs): 2
effect on 4-β-hydroxy-cholesterol ([5]; 14 days of once daily dosing): no effect on 4-β-hydroxy-cholesterol
effect on CYP3A4 activity ([5]; inferred from 4-β-hydroxy-cholesterol): no significant effect on CYP3A4 activity

— US20260345593A1, “ORAL FORMULATION OF N-PYRIDINYL ACETAMIDE DERIVATIVE FOR TREATING INTERSTITIAL LUNG DISEASE” (AstraZeneca AB, priority 2022, published 2026)
